Tests used:
[1] = system: reelin mRNA; experiment: Reelin mRNA knock-down following IV administration of the LNP formulations (FIGS. 1-4); assay type: in vivo; conditions: Balb/C mice (n=4); for reelin mRNA knock-down in HSCs, specificity for HSCs (FIG. 2) / dose giving equivalent potency in reelin mRNA knock-down (FIG. 1): 48 hours following IV administration
Protocol: (§1) The lipid solution contained 4 components: a PEG-conjugated lipid, an ionizable lipid (e.g., a silicon lipid), cholesterol, and a phospholipid (e.g., DSPC). Lipid stocks were prepared using the lipid identities and molar ratios as described. The siRNA was diluted in 100 mM acetate, pH 4 buffer to prepare lipid nanoparticles (LNP) at a total lipid to siRNA weight ratio of approximately 10:1 to 20:1. Equal volumes of the lipid and nucleic acid solutions were blended at a flow rate of 400 mL/min through a T-connector, and diluted into PBS, pH 7.4. The ethanol was then removed and the external buffer replaced with Tris/NaCl buffer by dialysis. Following dialysis, the formulations were concentrated using VivaSpin concentrator units (MWCO 100,000) and filtered through a 0.2 μm pore sterile filter. Nucleic acid concentration was determined by the RiboGreen assay. Particle size and polydispersity were determined using a Malvern Nano Series Zetasizer.
(§2) Generally, the LNP formulations were injected intravenously at 0.025 mg/kg to female Balb/C mice (5-8 weeks old) to measure activity of the HSC-LNP. Just prior to injection, the siRNA LNP stocks were filtered and diluted down to the required dosing concentration. At 48h post-dose (terminal timepoint), the animals were euthanized with a lethal dose of ketamine/xylazine. Half the left lateral lobe of the liver was collected into 1.5 mL RNALater and stored at 2-8° C. overnight. The next day, an approximately 20-25 mg piece of liver was homogenized and the liver lysate used in a QuantiGene Assay, testing for relative levels of mouse target mRNA and GAPDH expression. Data from each animal was normalized to the liver weight used in the assay, and then relative to the GAPDH signal; data is reported as the average % knock-down of each group (where the PBS control group is 100% gene expression, 0% knock-down).

[2] = system: mouse target mRNA; experiment: Activity assessment of HSC-LNP: liver target mRNA knock-down (QuantiGene) after IV injection of siRNA LNP (Table 1); assay type: in vivo, female Balb/C mice; conditions: dose 0.025 mg/kg IV, 48h post-dose, relative to PBS control
Protocol: as §1
as §2, with “Just” for “Generally, the LNP formulations were injected intravenously at 0.025 mg/kg to female Balb/C mice (5-8 weeks old) to measure activity of the HSC-LNP. Just”

[3] = Tolerability assessment of HSC-LNP: liver enzyme levels (FIGS. 5A-5B); assay type: in vivo, female Balb/C mice; conditions: dose range up to 3 mg/kg IV
Protocol: Generally, the LNP formulations were injected intravenously at ˜0.03 to 3 mg/kg to female Balb/C mice (5-8 weeks old) to assess tolerability of the HSC-LNP. Just prior to injection, the siRNA LNP stocks were filtered and diluted down to the required dosing concentration. At 2h post-treatment, blood was collected via tail nicks and processed to plasma (for cytokine analysis by ELISA). At the terminal timepoint (24 h post-dose), blood was collected by cardiac puncture (target ≥800 μL) and sent to IDEXX for CRES 15 panel analysis (CBC/Diff & Clin Chem analysis).
Briefly, blood (˜300 uL) was collected into EDTA microtainer tubes, inverted 10× to mix the K2EDTA whole blood sample, and immediately stored at 4° C. to await same-day shipment to for hematology analysis. The remaining blood volume (˜500 uL) was collected into serum separator tubes and inverted 5× to mix the SST sample, then allowed to clot for 1-1.5h at room temp. The blood samples were centrifuged, and serum was collected for clinical chemistry analysis.

[4] = Duration of action of LNP with minimally modified siRNA (FIG. 6); assay type: in vivo
[5] = Clearance of LNP from mouse liver, biodegradable functionality (FIG. 7); assay type: in vivo
[6] = 24 hours following IV administration

**Q.** With `CCCCC/C=C\CCCC(CCC/C=C\CCCCC)C(CCC/C=C\CCCCC)OC(=O)CCCCN(C)C` (stereo not shown) [Compound 101, reference compound] as the compound, how does the “reelin mRNA knock-down in HSCs, specificity for HSCs (FIG. 2)” value [1] read?
**A.** Its value is “no knock-down in HSCs”.

**Q.** For `CCCCC/C=C\CCCO[SiH](CCCCN1CCN(C)CCN(CCCC[Si](C)(OCCC/C=C\CCCCC)OCCC/C=C\CCCCC)CC1)OCCC/C=C\CCCCC` [Compound 38], which Percent knock-down ([2]; Formulation 1.5:50 (DSPC)) is on record?
**A.** Its Percent knock-down is 1%.

**Q.** With `CCCCC/C=C\CCCO[Si](C)(CCCCN1C[C@H]2CCCN(CCCC[Si](C)(OCCC/C=C\CCCCC)OCCC/C=C\CCCCC)[C@H]2C1)OCCC/C=C\CCCCC` [Compound 43] as the compound, how does the Percent knock-down ([2]; Formulation 1.5:50 (DSPC)) read?
**A.** Its Percent knock-down is 0%.

**Q.** Which Percent knock-down ([2]; Formulation 1.5:50 (DSPC)) does the source give for `CCCCC/C=C\CCCO[Si](C)(CCCCN1CCC2(CC1)CCN(CCCC[Si](C)(OCCC/C=C\CCCCC)OCCC/C=C\CCCCC)CC2)OCCC/C=C\CCCCC` [Compound 42] here?
**A.** The Percent knock-down was 28%.

**Q.** With `CCCCC/C=C\CCCO[Si](C)(CCCCN1CCC2(CC1)CCN(CCCC[Si](C)(OCCC/C=C\CCCCC)OCCC/C=C\CCCCC)CC2)OCCC/C=C\CCCCC` [Compound 14] as the compound, how does the Percent knock-down ([2]; Formulation 1.1:55 (DOPE)) read?
**A.** The Percent knock-down was 18%.

**Q.** With `CCCCC/C=C\CCCC(CCC/C=C\CCCCC)C(CCC/C=C\CCCCC)OC(=O)CCCCCN(C)C` (stereo not shown) [Compound 100, reference compound] as the compound, how does the “dose required to achieve equivalent reelin mRNA knock-down (FIG. 4)” value [1, 6] read?
**A.** Its value is roughly 1 mg/kg.

**Q.** What about the “dose giving equivalent potency in reelin mRNA knock-down (FIG. 1)” value [1] of the same compound?
**A.** Its value is 0.1 mg/kg.

**Q.** What does the source list for `CCCCC/C=C\CCCO[Si](C)(CCCCN(C)CCCN(C)CCCC[Si](C)(OCCC/C=C\CCCCC)OCCC/C=C\CCCCC)OCCC/C=C\CCCCC` [Compound 12, N1,N3-bis(4-(bis(((Z)-dec-4-en-1-yl)oxy)(methyl)silyl)butyl)-N1,N3-dimethylpropane-1,3-diamine]?
**A.** dose at which maximum knock-down in HSCs is achieved (FIG. 3) [1, 6]: about 0.03 mg/kg; dose required to achieve equivalent reelin mRNA knock-down (FIG. 4) [1, 6]: 0.03 mg/kg; dose giving equivalent potency in reelin mRNA knock-down (FIG. 1) [1]: 0.025 mg/kg; reelin mRNA knock-down in HSCs, specificity for HSCs (FIG. 2) [1]: high specificity for HSCs; tolerability: liver enzyme levels (FIGS. 5A-5B) [3]: no significant increases in liver enzyme levels; duration of action (FIG. 6) [4]: good duration of action; clearance of LNP from mouse liver (FIG. 7) [5]: cleared rapidly from mouse liver

**Q.** For `CCCCC/C=C\CCCO[Si](C)(CCCCN1CCC2(CC1)CCN(CCCC[Si](C)(OCCC/C=C\CCCCC)OCCC/C=C\CCCCC)C2)OCCC/C=C\CCCCC` [Compound 39], which Percent knock-down ([2]; Formulation 1.5:50 (DSPC)) is on record?
**A.** The Percent knock-down was 81%.

**Q.** With `CCCCC/C=C\CCCO[Si](C)(CCCCN(CC)CCCN(CC)CCCC[Si](C)(OCCC/C=C\CCCCC)OCCC/C=C\CCCCC)OCCC/C=C\CCCCC` [Compound 29] as the compound, how does the Percent knock-down ([2]; Formulation 1.1:55 (DSPC)) read?
**A.** Its Percent knock-down is 29%.
